# Results: article PMC10566733 (PLOS ONE, 2023)
# “And” between values parts separate entries of the source, which are not always exact repeats. Equal entries are not always repeated.
# What was measured:
# [1] = tested on: monolayer of bEnd.3 brain endothelial cells; details: 1000 μM TAT; Fig 5A
# Procedure: (§1) Briefly, the cells were seeded onto 24-well culture inserts (Falcon Permeable Support for 24-well plate; cat. #353104), and one-half of the medium was replaced every other day, and the cells were cultured for 5 days prior to the performance of a permeability assay. On the day of the assay, the culture medium was replaced with serum-free DMEM with FITC-linked peptides or bovine serum albumin (Sigma).
# Medium collected from cell culture in vitro (12 μl medium per culture) and tissue samples harvested from mice in vivo were denatured by boiling in lysis buffer, separated by electrophoresis, transferred onto PVDF membranes, and imaged after incubation in primary and secondary antibodies as described previously for in vitro [55] and in vivo [57] experiments. The following primary antibodies were used: anti-albumin (1:2000; GeneTex, cat. #102419, for the in vitro experiments; 1:5000; Abcam, cat. #ab106582, for the in vivo experiments) and anti-ɑ-tubulin (1:5000; GeneTex, cat. #GTX628802) antibodies, and the following secondary antibodies were used: anti-rabbit (1:5000; GeneTex, cat. #GTX213110-01), anti-mouse (1:1000; GeneTex, cat. #GTX213111-01), and anti-chicken (1:1000; Abcam, cat. #ab97135) antibodies.
# [2] = tested on: monolayer of bEnd.3 mouse brain endothelial cells; assay: Permeability across a monolayer of brain endothelial cells (in vitro BBB model); format: in vitro ADME; parameters: Diffusion of FITC-TAT across bEnd.3 monolayer / Diffusion of FITC-linked peptide across bEnd.3 monolayer / Diffusion of FITC-TAT across bEnd.3 monolayer, FITC-TAT + TAT / Diffusion of FITC-TAT across bEnd.3 monolayer, FITC-TAT + TATK/R>A: unit not given here; details: for Diffusion of FITC-TAT across bEnd.3 monolayer, FITC-TAT + TAT: FITC-TAT 10 μM coupled with non-FITC TAT 10 μM; for Diffusion of FITC-TAT across bEnd.3 monolayer, FITC-TAT + TAT / Diffusion of FITC-TAT across bEnd.3 monolayer, FITC-TAT + TATK/R>A / Diffusion of FITC-TAT across bEnd.3 monolayer / Diffusion of FITC-linked peptide across bEnd.3 monolayer: fluorescence spectrophotometry; for Diffusion of FITC-TAT across bEnd.3 monolayer, FITC-TAT + TATK/R>A: FITC-TAT 10 μM coupled with non-FITC TAT^K/R>A 10 μM; for Diffusion of FITC-TAT across bEnd.3 monolayer: bEnd.3 monolayer on Transwell, serum-free DMEM
# [3] = endothelial monolayers absent; FITC-TAT 10 μM; Fig 1A
# Procedure: as §1
# [4] = diffusion time 0.1 h, individual cultures n = 3
# [5] = diffusion time 12 h, individual cultures n = 3
# [6] = diffusion time 24 h, individual cultures n = 3
structure (smiles),measurement,setting,value
N=C(N)NCCC[C@H](NC(=O)[C@H](CCCNC(=N)N)NC(=O)[C@H](CCCNC(=N)N)NC(=O)[C@H](CCC(N)=O)NC(=O)[C@H](CCCNC(=N)N)NC(=O)[C@H](CCCNC(=N)N)NC(=O)[C@H](CCCCN)NC(=O)[C@H](CCCCN)NC(=O)[C@H](CCCNC(=N)N)NC(=O)CNC(=O)[C@@H](N)Cc1ccc(O)cc1)C(=O)O [TAT],Effect of TAT on the amount of albumin that crossed the monolayer,[1],significantly increased
N=C(N)NCCC[C@H](NC(=O)[C@H](CCCNC(=N)N)NC(=O)[C@H](CCCNC(=N)N)NC(=O)[C@H](CCC(N)=O)NC(=O)[C@H](CCCNC(=N)N)NC(=O)[C@H](CCCNC(=N)N)NC(=O)[C@H](CCCCN)NC(=O)[C@H](CCCCN)NC(=O)[C@H](CCCNC(=N)N)NC(=O)CNC(=O)[C@H](Cc1ccc(O)cc1)NC(=S)Nc1ccc2c(c1)C(=O)OC21c2ccc(O)cc2Oc2cc(O)ccc21)C(=O)O [FITC-TAT],Diffusion of FITC-TAT from upper to lower chamber of Transwell inserts,"[2]; 37°C, regardless of whether monolayers of brain endothelial cells were cultured on the membranes, Fig 1A and 1B",readily diffused across to the lower chamber
same,"Diffusion of FITC-TAT across bEnd.3 monolayer, FITC-TAT + TAT",[2]; [4],1.844 and 1.839 and 1.804
same,"Diffusion of FITC-TAT across bEnd.3 monolayer, FITC-TAT + TAT",[2]; [5],42.0052 and 42.275 and 41.3436
same,"Diffusion of FITC-TAT across bEnd.3 monolayer, FITC-TAT + TAT",[2]; [6],90.1666 and 89.6029 and 94.8903
same,"Diffusion of FITC-TAT across bEnd.3 monolayer, FITC-TAT + TATK/R>A",[2]; [4],1.736 and 1.755 and 1.705
same,"Diffusion of FITC-TAT across bEnd.3 monolayer, FITC-TAT + TATK/R>A",[2]; [5],41.331 and 40.0366 and 39.1388
same,"Diffusion of FITC-TAT across bEnd.3 monolayer, FITC-TAT + TATK/R>A",[2]; [6],85.9302 and 85.5824 and 85.3453
same,Effect of the presence of non-FITC TAT or non-FITC TAT^K/R>A on permeability of the monolayer to FITC-TAT,"[2]; FITC-TAT 10 μM with 10 μM competitor, Fig 3D",only marginally decreased
same,Effect of NaN3 and 2-DG treatment regimens on ability of FITC-TAT to cross the monolayer,"[2]; FITC-TAT 10 μM, NaN3 10 mM and 2-DG 6 mM, 1 h pre-treatment or 24 h, Fig 2B",neither treatment regimens had an effect
same,Diffusion of FITC-TAT across bEnd.3 monolayer,"[2]; FITC-TAT 10 μM, 4°C, diffusion time 0 h, individual cultures n = 10",1.386 and 10.0745 and 1.495 and 1.465 and 7.9907 and 7.9 and 8.057 and 7.849 and 10.0907 and 10.1377
same,Diffusion of FITC-TAT across bEnd.3 monolayer,"[2]; FITC-TAT 10 μM, 4°C, diffusion time 0.5 h, individual cultures n = 10",2.727 and 10.2694 and 1.946 and 2.6148 and 12.2754 and 11.4859 and 13.8266 and 14.9326 and 10.2588 and 10.1802
same,Diffusion of FITC-TAT across bEnd.3 monolayer,"[2]; FITC-TAT 10 μM, 4°C, diffusion time 1 h, individual cultures n = 10",3.318 and 12.0592 and 3.998 and 4.153 and 14.099 and 14.1024 and 12.2279 and 14.4626 and 12.8546 and 12.5004
same,Diffusion of FITC-TAT across bEnd.3 monolayer,"[2]; FITC-TAT 10 μM, 4°C, diffusion time 2 h, individual cultures n = 10",4.184 and 12.4226 and 4.5396 and 5.958 and 21.4454 and 17.4004 and 16.7345 and 14.5981 and 18.4195 and 13.6876
same,Diffusion of FITC-TAT across bEnd.3 monolayer,"[2]; FITC-TAT 10 μM, 4°C, diffusion time 4 h, individual cultures n = 10",12.2948 and 22.4089 and 5.603 and 11.4776 and 26.9335 and 21.9034 and 18.3373 and 22.0326 and 23.9812 and 20.9146
same,Diffusion of FITC-TAT across bEnd.3 monolayer,"[2]; FITC-TAT 10 μM, 4°C, diffusion time 8 h, individual cultures n = 10",23.6561 and 36.4429 and 7.1971 and 15.1917 and 28.8919 and 24.9217 and 33.0378 and 37.6449 and 33.9313 and 51.5353
same,Diffusion of FITC-TAT across bEnd.3 monolayer,"[2]; FITC-TAT 10 μM, 4°C, diffusion time 12 h, individual cultures n = 10",44.603 and 38.3865 and 18.3523 and 26.8326 and 40.1964 and 39.8496 and 31.2218 and 52.2936 and 30.2304 and 54.311
same,Diffusion of FITC-TAT across bEnd.3 monolayer,"[2]; FITC-TAT 10 μM, 37°C, diffusion time 0 h, individual cultures n = 8",2.7408 and 2.991 and 8.292 and 8.146 and 7.613 and 9.624 and 9.686 and 9.768
same,Diffusion of FITC-TAT across bEnd.3 monolayer,"[2]; FITC-TAT 10 μM, 37°C, diffusion time 0.5 h, individual cultures n = 8",5.546 and 5.194 and 16.5195 and 13.9086 and 14.4213 and 13.3482 and 14.7024 and 14.0517
same,Diffusion of FITC-TAT across bEnd.3 monolayer,"[2]; FITC-TAT 10 μM, 37°C, diffusion time 1 h, individual cultures n = 8",8.062 and 7.828 and 16.9226 and 16.4917 and 15.6732 and 12.2867 and 19.4469 and 13.4865
same,Diffusion of FITC-TAT across bEnd.3 monolayer,"[2]; FITC-TAT 10 μM, 37°C, diffusion time 2 h, individual cultures n = 8",13.5165 and 10.5024 and 28.7248 and 24.7001 and 24.2495 and 24.3505
same,FITC-TAT movement across the endothelial monolayer with cytochalasin D,"[2]; cells incubated with 100 μM cytochalasin D, FITC-TAT 10 μM, Fig 4D",increased rather than inhibited
same,Effect of lowering the temperature to 4°C on diffusion of FITC-TAT across Transwell inserts,"[2]; endothelial monolayers present, FITC-TAT 10 μM, Fig 1B",substantially decreased
same,Diffusion of FITC-linked peptide across bEnd.3 monolayer,"[2]; peptide 1 μM (Fig 3A), diffusion time 0.1 h, individual cultures n = 4",16.1034 and 15.6278 and 16.2621 and 16.9227
same,Diffusion of FITC-linked peptide across bEnd.3 monolayer,"[2]; peptide 1 μM (Fig 3A), diffusion time 4 h, individual cultures n = 4",33.068 and 35.9601 and 44.67 and 33.2662
same,Diffusion of FITC-linked peptide across bEnd.3 monolayer,"[2]; peptide 1 μM (Fig 3A), diffusion time 12 h, individual cultures n = 4",59.5062 and 62.0797 and 69.9514 and 60.3513
same,Diffusion of FITC-linked peptide across bEnd.3 monolayer,"[2]; peptide 1 μM (Fig 3A), diffusion time 24 h, individual cultures n = 4",98.4329 and 97.1083 and 108.448 and 96.0109
same,Diffusion of FITC-linked peptide across bEnd.3 monolayer,"[2]; peptide 3 μM (Fig 3B), diffusion time 0.1 h, individual cultures n = 4",5.536 and 5.776 and 5.613 and 5.958
same,Diffusion of FITC-linked peptide across bEnd.3 monolayer,"[2]; peptide 3 μM (Fig 3B), diffusion time 4 h, individual cultures n = 4",30.6967 and 26.8471 and 24.0637 and 21.038
same,Diffusion of FITC-linked peptide across bEnd.3 monolayer,"[2]; peptide 3 μM (Fig 3B), diffusion time 12 h, individual cultures n = 4",69.4896 and 55.4891 and 51.5686 and 64.8124
same,Diffusion of FITC-linked peptide across bEnd.3 monolayer,"[2]; peptide 3 μM (Fig 3B), diffusion time 24 h, individual cultures n = 4",112.045 and 93.6163 and 91.1166 and 103.222
same,Diffusion of FITC-linked peptide across bEnd.3 monolayer,"[2]; peptide 10 μM (Fig 3C), diffusion time 0.1 h, individual cultures n = 4",1.488 and 1.536 and 1.502 and 1.69
same,Diffusion of FITC-linked peptide across bEnd.3 monolayer,"[2]; peptide 10 μM (Fig 3C), diffusion time 4 h, individual cultures n = 4",20.2675 and 19.471 and 18.2115 and 22.8397
same,Diffusion of FITC-linked peptide across bEnd.3 monolayer,"[2]; peptide 10 μM (Fig 3C), diffusion time 12 h, individual cultures n = 4",55.3743 and 53.9149 and 46.6389 and 56.9448
same,Diffusion of FITC-linked peptide across bEnd.3 monolayer,"[2]; peptide 10 μM (Fig 3C), diffusion time 24 h, individual cultures n = 4",95.2978 and 101.031 and 98.8203 and 104.851
same,Diffusion of FITC-linked peptide across bEnd.3 monolayer,"[2]; peptide 10 μM alone (Fig 3D), diffusion time 0.1 h, individual cultures n = 3",1.749 and 1.772 and 1.79
same,Diffusion of FITC-linked peptide across bEnd.3 monolayer,"[2]; peptide 10 μM alone (Fig 3D), diffusion time 12 h, individual cultures n = 3",43.9695 and 46.4386 and 47.7244
same,Diffusion of FITC-linked peptide across bEnd.3 monolayer,"[2]; peptide 10 μM alone (Fig 3D), diffusion time 24 h, individual cultures n = 3",96.1412 and 98.5343 and 105.324
same,Effect of lowering the temperature to 4°C on diffusion of FITC-TAT across Transwell inserts,[3],had no effect
